Test results from patent publication US9562031B1, “Phenethyldihydrobenzodioxolones and methods of use” (Sequoia Sciences, Inc., priority 2015, dated 2017).
Structures can show the parent of a compound that is named as a salt.

Tests used:
A498 cells = test: NCI-60 panel antiproliferation, A498; format: cell-based, human; conditions: NCI 60-cell panel
Description: (§1) Bifidenone and Compound 37 were tested for antiproliferation activity against the NCI-60 panel of cancer cell lines. COMPARE analysis was then conducted to compare the activity “fingerprint” of bifidenone to those of known classes of compounds (Zhou, B.-N., Hoch, J. M., Johnson, R. K., Mattern, M. R., Eng, W.-K., Ma, J., Hecht, S. M., Newman, D. J., Kingston, D. G. I., 2000. Use of COMPARE Analysis to Discover New Natural Product Drugs: Isolation of Camptothecin and 9-Methoxycamptothecin from a New Source. Journal of Natural Products 63, 1273-1276.).

A549 cells = test: NCI-60 panel antiproliferation, A549; format: cell-based, human; conditions: NCI 60-cell panel
Description: as §1

ACHN cells = test: NCI-60 panel antiproliferation, ACHN; format: cell-based, human; conditions: NCI 60-cell panel
Description: as §1

BT-549 cells = test: NCI-60 panel antiproliferation, BT-549; format: cell-based, human; conditions: NCI 60-cell panel
Description: as §1

Caki-1 cells = test: NCI-60 panel antiproliferation, Caki-1; format: cell-based, human; conditions: NCI 60-cell panel
Description: as §1

CCRF-CEM cells = test: NCI-60 panel antiproliferation, CCRF-CEM; format: cell-based, human; conditions: NCI 60-cell panel
Description: as §1

COLO205 cells = test: NCI-60 panel antiproliferation, COLO205; format: cell-based, human; conditions: NCI 60-cell panel
Description: as §1

DU-145 cells = test: NCI-60 panel antiproliferation, DU-145; format: cell-based, human; conditions: NCI 60-cell panel
Description: as §1

EKVX cells = test: NCI-60 panel antiproliferation, EKVX; format: cell-based, human; conditions: NCI 60-cell panel
Description: as §1

HCC-2998 cells = test: NCI-60 panel antiproliferation, HCC-2998; format: cell-based, human; conditions: NCI 60-cell panel
Description: as §1

HCT-15 cells = test: NCI-60 panel antiproliferation, HCT-15; format: cell-based, human; conditions: NCI 60-cell panel
Description: as §1

HCT-116 cells = test: NCI-60 panel antiproliferation, HCT-116; format: cell-based, human; conditions: NCI 60-cell panel
Description: as §1

HL-60 cells = test: NCI-60 panel antiproliferation, HL-60; format: cell-based, human; conditions: NCI 60-cell panel
Description: as §1

HOP-62 cells = test: NCI-60 panel antiproliferation, HOP-62; format: cell-based, human; conditions: NCI 60-cell panel
Description: as §1

HOP-92 cells = test: NCI-60 panel antiproliferation, HOP-92; format: cell-based, human; conditions: NCI 60-cell panel
Description: as §1

Hs578T cells = test: NCI-60 panel antiproliferation, Hs578T; format: cell-based, human; conditions: NCI 60-cell panel
Description: as §1

HT29 cells = test: NCI-60 panel antiproliferation, HT29; format: cell-based, human; conditions: NCI 60-cell panel
Description: as §1

IGR-OV1 cells = test: NCI-60 panel antiproliferation, IGR-OV1; format: cell-based, human; conditions: NCI 60-cell panel
Description: as §1

K-562 cells = test: NCI-60 panel antiproliferation, K-562; format: cell-based, human; conditions: NCI 60-cell panel
Description: as §1

KM12 cells = test: NCI-60 panel antiproliferation, KM12; format: cell-based, human; conditions: NCI 60-cell panel
Description: as §1

LOX IMVI cells = test: NCI-60 panel antiproliferation, LOX IMVI; format: cell-based, human; conditions: NCI 60-cell panel
Description: as §1

M14 cells = test: NCI-60 panel antiproliferation, M14; format: cell-based, human; conditions: NCI 60-cell panel
Description: as §1

MALME-3M cells = test: NCI-60 panel antiproliferation, MALME-3M; format: cell-based, human; conditions: NCI 60-cell panel
Description: as §1

MCF-7 cells = test: NCI-60 panel antiproliferation, MCF-7; format: cell-based, human; conditions: NCI 60-cell panel
Description: as §1

MDA-MB-231 cells = test: NCI-60 panel antiproliferation, MDA-MB-231; format: cell-based, human; conditions: NCI 60-cell panel
Description: as §1

MDA-MB-435 cells = test: NCI-60 panel antiproliferation, MDA-MB-435; format: cell-based, human; conditions: NCI 60-cell panel
Description: as §1

MDA-MB-468 cells = test: NCI-60 panel antiproliferation, MDA-MB-468; format: cell-based, human; conditions: NCI 60-cell panel
Description: as §1

MOLT-4 cells = test: NCI-60 panel antiproliferation, MOLT-4; format: cell-based, human; conditions: NCI 60-cell panel
Description: as §1

NCI-ADR/RES cells = test: NCI-60 panel antiproliferation, NCI-ADR/RES; format: cell-based, human; conditions: NCI 60-cell panel
Description: as §1

NCI-H23 cells = test: NCI-60 panel antiproliferation, NCI-H23; format: cell-based, human; conditions: NCI 60-cell panel
Description: as §1

NCI-H226 cells = test: NCI-60 panel antiproliferation, NCI-H226; format: cell-based, human; conditions: NCI 60-cell panel
Description: as §1

NCI-H322M cells = test: NCI-60 panel antiproliferation, NCI-H322M; format: cell-based, human; conditions: NCI 60-cell panel
Description: as §1

NCI-H460 cells = test: NCI-60 panel antiproliferation, NCI-H460; format: cell-based, human; conditions: NCI 60-cell panel
Description: as §1

NCI-H522 cells = test: NCI-60 panel antiproliferation, NCI-H522; format: cell-based, human; conditions: NCI 60-cell panel
Description: as §1

OVCAR-3 cells = test: NCI-60 panel antiproliferation, OVCAR-3; format: cell-based, human; conditions: NCI 60-cell panel
Description: as §1

OVCAR-4 cells = test: NCI-60 panel antiproliferation, OVCAR-4; format: cell-based, human; conditions: NCI 60-cell panel
Description: as §1

OVCAR-5 cells = test: NCI-60 panel antiproliferation, OVCAR-5; format: cell-based, human; conditions: NCI 60-cell panel
Description: as §1

OVCAR-8 cells = test: NCI-60 panel antiproliferation, OVCAR-8; format: cell-based, human; conditions: NCI 60-cell panel
Description: as §1

PC-3 cells = test: NCI-60 panel antiproliferation, PC-3; format: cell-based, human; conditions: NCI 60-cell panel
Description: as §1

RPMI-8226 cells = test: NCI-60 panel antiproliferation, RPMI-8226; format: cell-based, human; conditions: NCI 60-cell panel
Description: as §1

RXF-393 cells = test: NCI-60 panel antiproliferation, RXF-393; format: cell-based, human; conditions: NCI 60-cell panel
Description: as §1

SF-268 cells = test: NCI-60 panel antiproliferation, SF-268; format: cell-based, human; conditions: NCI 60-cell panel
Description: as §1

SF-295 cells = test: NCI-60 panel antiproliferation, SF-295; format: cell-based, human; conditions: NCI 60-cell panel
Description: as §1

SF-539 cells = test: NCI-60 panel antiproliferation, SF-539; format: cell-based, human; conditions: NCI 60-cell panel
Description: as §1

SK-Mel-2 cells = test: NCI-60 panel antiproliferation, SK-MEL-2; format: cell-based, human; conditions: NCI 60-cell panel
Description: as §1

SK-Mel-5 cells = test: NCI-60 panel antiproliferation, SK-MEL-5; format: cell-based, human; conditions: NCI 60-cell panel
Description: as §1

SK-MEL-28 cells = test: NCI-60 panel antiproliferation, SK-MEL-28; format: cell-based, human; conditions: NCI 60-cell panel
Description: as §1

SK-OV-3 cells = test: NCI-60 panel antiproliferation, SK-OV-3; format: cell-based, human; conditions: NCI 60-cell panel
Description: as §1

SN12C cells = test: NCI-60 panel antiproliferation, SN12C; format: cell-based, human; conditions: NCI 60-cell panel
Description: as §1

SNB-19 cells = test: NCI-60 panel antiproliferation, SNB-19; format: cell-based, human; conditions: NCI 60-cell panel
Description: as §1

SNB-75 cells = test: NCI-60 panel antiproliferation, SNB-75; format: cell-based, human; conditions: NCI 60-cell panel
Description: as §1

SR cells = test: NCI-60 panel antiproliferation, SR; format: cell-based, human; conditions: NCI 60-cell panel
Description: as §1

SW-620 cells = test: NCI-60 panel antiproliferation, SW-620; format: cell-based, human; conditions: NCI 60-cell panel
Description: as §1

T-47D cells = test: NCI-60 panel antiproliferation, T-47D; format: cell-based, human; conditions: NCI 60-cell panel
Description: as §1

TK-10 cells = test: NCI-60 panel antiproliferation, TK-10; format: cell-based, human; conditions: NCI 60-cell panel
Description: as §1

U251 cells = test: NCI-60 panel antiproliferation, U251; format: cell-based, human; conditions: NCI 60-cell panel
Description: as §1

UACC-62 cells = test: NCI-60 panel antiproliferation, UACC-62; format: cell-based, human; conditions: NCI 60-cell panel
Description: as §1

UACC-257 cells = test: NCI-60 panel antiproliferation, UACC-257; format: cell-based, human; conditions: NCI 60-cell panel
Description: as §1

UO-31 cells = test: NCI-60 panel antiproliferation, UO-31; format: cell-based, human; conditions: NCI 60-cell panel
Description: as §1

786-0 cells = test: NCI-60 panel antiproliferation, 786-0; format: cell-based, human; conditions: NCI 60-cell panel
Description: as §1

NCI-H460 or M14 cells = test: in vitro antiproliferation assay (cell line not stated for the salt); format: cell-based; conditions: Homo sapiens, HCl salt
Description: For the antiproliferation assay, NCI-H460 (large cell lung carcinoma) or M14 (amelanotic melanoma) cells were grown in RPMI-1640 with 10% FBS supplemented with L-glutamine and HEPES. Cells were seeded into 96-well plates at 5×10^2 to 5×10^4 cells/well and allowed to adhere overnight; the medium was then removed. A stock solution of test compound in DMSO was diluted in medium to generate a series of working solutions. Aliquots (100 μl) of the working solutions were then added to the appropriate test wells to expose cells to the final concentrations of compound in a total volume of 100 μl. Seven different concentrations were tested, with 2-5 wells per concentration. Camptothecin was used as a positive control; wells containing vehicle without compound were used as negative controls. Plates were kept for 72 h in a 37° C., 5% CO2 incubator. After incubation, viable cells were detected with the CELLTITER 96 AQueous Non-Radioactive Cell Proliferation Assay (Promega), and IC50 values were determined using GraphPad Prism 5 software.
As stated herein, the invention also includes compounds and their salts. The HCl salt of compound 66 was prepared, and the salt retained activity in the in vitro antiproliferation assay (IC50 5-7 μM).

## C=CC[C@H]1C[C@]2([C@@H](C)Cc3ccc(OC)c(OC)c3)OCOC2=CC1=O [bifidenone, Bifidenone]
A498 cells
  IC50: 460 nM
A549 cells
  IC50: 260 nM
ACHN cells
  IC50: 850 nM
BT-549 cells
  IC50: 180 nM
Caki-1 cells
  IC50: 100 nM
CCRF-CEM cells
  IC50: 150 nM
COLO205 cells
  IC50: 400 nM
DU-145 cells
  IC50: 840 nM
EKVX cells
  IC50: 280 nM
HCC-2998 cells
  IC50: 1410 nM
HCT-15 cells
  IC50: 230 nM
HCT-116 cells
  IC50: 490 nM
HL-60 cells
  IC50: 120 nM
HOP-62 cells
  IC50: 320 nM
HOP-92 cells
  IC50: 240 nM
Hs578T cells
  IC50: 210 nM
HT29 cells
  IC50: 310 nM
IGR-OV1 cells
  IC50: 420 nM
K-562 cells
  IC50: 180 nM
KM12 cells
  IC50: 320 nM
LOX IMVI cells
  IC50: 390 nM
M14 cells
  IC50: 200 nM
MALME-3M cells
  IC50: 90 nM
MCF-7 cells
  IC50: 170 nM
MDA-MB-231 cells
  IC50: 260 nM
MDA-MB-435 cells
  IC50: 70 nM
MDA-MB-468 cells
  IC50: 300 nM
MOLT-4 cells
  IC50: 170 nM
NCI-ADR/RES cells
  IC50: 170 nM
NCI-H23 cells
  IC50: 610 nM
NCI-H226 cells
  IC50: 810 nM
NCI-H322M cells
  IC50: 460 nM
NCI-H460 cells
  IC50: 320 nM
NCI-H522 cells
  IC50: 150 nM
OVCAR-3 cells
  IC50: 170 nM
OVCAR-4 cells
  IC50: 290 nM
OVCAR-5 cells
  IC50: 520 nM
OVCAR-8 cells
  IC50: 470 nM
PC-3 cells
  IC50: 190 nM
RPMI-8226 cells
  IC50: 250 nM
RXF-393 cells
  IC50: 780 nM
SF-268 cells
  IC50: 220 nM
SF-295 cells
  IC50: 410 nM
SF-539 cells
  IC50: 260 nM
SK-Mel-2 cells
  IC50: 130 nM
SK-Mel-5 cells
  IC50: 250 nM
SK-MEL-28 cells
  IC50: 130 nM
SK-OV-3 cells
  IC50: 270 nM
SN12C cells
  IC50: 330 nM
SNB-19 cells
  IC50: 300 nM
SNB-75 cells
  IC50: 270 nM
SR cells
  IC50: 80 nM
SW-620 cells
  IC50: 130 nM
T-47D cells
  IC50: 250 nM
TK-10 cells
  IC50: 330 nM
U251 cells
  IC50: 610 nM
UACC-62 cells
  IC50: 140 nM
UACC-257 cells
  IC50: 160 nM
UO-31 cells
  IC50: 570 nM
786-0 cells
  IC50: 320 nM

## COc1cc(F)c(C[C@H](C)[C@]23C[C@H](Cc4ccncc4)C(=O)C=C2OCO3)cc1O [HCl salt of compound 66, (6S,7aR)-7a-((S)-1-(2-fluoro-5-hydroxy-4-methoxyphenyl)propan-2-yl)-6-(pyridin-4-ylmethyl)-7,7a-dihydrobenzo[d][1,3]dioxol-5(6H)-one hydrochloride]
NCI-H460 or M14 cells
  IC50: 5000 to 7000 nM
